How the values were obtained:
[1] = target: phosphorylated ERBB2 (pERBB2) (Homo sapiens (Human), UniProt P04626); assay: Detection of phosphorylated ERBB2 (pERBB2) by ELISA in BT-474 cells; assay type: cell-based; details: four hours incubation with compound
Method: BT-474 cells were seeded into a 96-well at 2.0*10^4cells/100 μl/well. Compounds were dissolved and serially diluted in DMSO. The compounds were then were added, mixed, and incubated for four hours at 37° C., 5% CO2. […] Following the four hour incubation with compounds, cell lysates were prepared. Plates were centrifuged for 5 min at 3000 RPM, and supernatant was removed from each well. Cells were washed 3 times by resuspension in 150 μl PBS, followed by centrifugation and removal of the supernatant, as above. 100 μl of cell lysis buffer (Boston BioProducts, cat #BP-115D) supplied with 1×complete ULTRA cocktail inhibitor (Thermo ScientificTM, cat #78443) was then added to the washed cells. Cells were incubated with lysis buffer for 1 hour at 4° C., and then stored at -80° C. Enzyme-linked immunosorbent assays (ELISA) were performed to measure phosphorylated ERBB2 levels. […] The next day, plates were washed with PBS+0.05% Tween20 (PBST). 150 μl of 5% BSA blocking solution was added for 1 hour at room temperature, with shaking. Plates were washed with PBST. Cell lysates were thawed and 100 μl of lysate was added to the ELISA plate. The plates were incubated for 2 hours at room temperature, with shaking. ELISA plates were then washed with PBST and 100 μl of an HRP-labeled detection antibody that binds phosphorylated tyrosine (R&D Systems, cat #841913) was added to each well. Plates were incubated for 1 hour at room temperature, with shaking. Plates were then washed with PBST, and 100 μl TMB substrate solution (R&D Systems, cat #DY999) was added. Plate were incubated in the dark for 20 minutes at room temperature. 50 μl of Stop solution (R&D Systems, cat #DY994) (50 μl) was added to each well and mixed. […] The remaining kinase activity by calculated using the following formula: % Relative activity=100×([…]). The low and high control values (“LC” and “HC”) were generated from lysate from wells without cells or with cells treated with 0.1% DMSO, respectively.

[2] = target: phosphorylated EGFR (pEGFR) (Homo sapiens (Human), UniProt P00533); assay: Detection of phosphorylated EGFR (pEGFR) by AlphaLISA in A431 cells; assay type: cell-based; details: A431 cells (10% FBS), 4 hours incubation, EGF 30 ng/mL for 10 minutes
Method: […] were performed to measure phosphorylated EGFR levels using A431 cells (10% FBS). A431 (1.0*10^4cells/40 μl/well) cells were seeded in 384 well. Compounds were dissolved in DMSO, serially diluted in DMSO and then were added, mixed, and incubated for 4 hours at 37° C., […]. Following the 4-hours incubation, cells were stimulated for 10 minutes with EGF (Invitrogen, cat #PHG0311) at a final concentration of 30 ng/mL in the incubator. The media was aspirated and cells were lysed in 10 μL lysis buffer with protease and phosphatase inhibitors (PerkinElmer, cat #ALSU-PEGFR-A50K). The plates were placed on a shaker for 5 minutes and then incubated for 30 min at 4° C. for complete lysis. The lysate was transferred to an Optiplate (Perkin Elmer, cat #6007290).
Acceptor mix (PerkinElmer, cat #ALSU-PEGFR-A50K) was prepared just before use and 5 μL was dispensed to all the wells, followed by a 1.5-2 h incubation at room temperature in dark. The donor mix (PerkinElmer, cat #ALSU-PEGFR-A50K) was prepared under low light conditions prior to use and 5 μl of donor mix was added to all the wells under subdued lighting or green filters. The plates were placed on a shaker for 5 min, sealed, and incubated overnight at room temperature in dark. Plates were read on the Envision (PerkinElmer) using standard AlphaLISA settings.
The percentage of inhibition on EGFR phosphorylation was calculated following equation: % Inhibition=100×(LumHC−LumSample)/(LumHC−LumLC). The low and high controls (LC/HC) are generated from lysate from wells with cells treated with DMSO or […] Staurosporine (BioAustralis, cat #BIA-S1086), […]. IC50 values were calculated by fitting the Curve using XLfit (v5.3.1.3), equation 201: Y=Bottom+(Top−Bottom)/(1+10^((LogIC50−X)*HillSlope)).

phosphorylated EGFR (pEGFR), sequence (P00533 25-1210): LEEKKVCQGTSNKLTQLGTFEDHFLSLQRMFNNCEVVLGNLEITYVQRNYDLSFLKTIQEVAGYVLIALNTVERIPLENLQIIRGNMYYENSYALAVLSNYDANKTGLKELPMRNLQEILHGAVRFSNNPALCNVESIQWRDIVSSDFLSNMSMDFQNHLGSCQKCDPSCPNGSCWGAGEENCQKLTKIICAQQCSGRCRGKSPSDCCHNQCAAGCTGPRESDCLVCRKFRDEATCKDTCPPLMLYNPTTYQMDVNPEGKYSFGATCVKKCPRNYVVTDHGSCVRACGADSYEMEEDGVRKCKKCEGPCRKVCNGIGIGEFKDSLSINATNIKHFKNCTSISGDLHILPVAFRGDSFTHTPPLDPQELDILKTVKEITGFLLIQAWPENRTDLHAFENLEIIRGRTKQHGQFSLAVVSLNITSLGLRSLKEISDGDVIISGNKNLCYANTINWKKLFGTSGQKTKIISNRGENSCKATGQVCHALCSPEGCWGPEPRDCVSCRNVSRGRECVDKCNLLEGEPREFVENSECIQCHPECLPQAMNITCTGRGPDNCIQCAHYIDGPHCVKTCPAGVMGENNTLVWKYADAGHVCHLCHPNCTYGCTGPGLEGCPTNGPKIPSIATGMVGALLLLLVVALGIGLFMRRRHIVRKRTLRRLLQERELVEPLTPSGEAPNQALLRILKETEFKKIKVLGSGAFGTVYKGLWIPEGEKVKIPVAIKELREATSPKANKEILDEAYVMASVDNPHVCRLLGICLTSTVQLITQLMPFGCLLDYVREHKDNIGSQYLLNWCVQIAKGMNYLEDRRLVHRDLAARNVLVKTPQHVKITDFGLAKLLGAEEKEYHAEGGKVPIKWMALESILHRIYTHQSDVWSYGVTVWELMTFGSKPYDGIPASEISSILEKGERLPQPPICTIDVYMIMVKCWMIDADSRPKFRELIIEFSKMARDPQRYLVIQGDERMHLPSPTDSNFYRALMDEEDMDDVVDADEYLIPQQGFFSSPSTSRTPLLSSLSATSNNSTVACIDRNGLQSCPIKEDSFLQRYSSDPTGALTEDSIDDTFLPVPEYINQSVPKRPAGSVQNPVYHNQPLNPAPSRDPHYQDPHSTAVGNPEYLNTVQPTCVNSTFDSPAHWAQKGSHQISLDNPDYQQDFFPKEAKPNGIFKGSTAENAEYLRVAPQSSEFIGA
phosphorylated ERBB2 (pERBB2), sequence (P04626 23-1255): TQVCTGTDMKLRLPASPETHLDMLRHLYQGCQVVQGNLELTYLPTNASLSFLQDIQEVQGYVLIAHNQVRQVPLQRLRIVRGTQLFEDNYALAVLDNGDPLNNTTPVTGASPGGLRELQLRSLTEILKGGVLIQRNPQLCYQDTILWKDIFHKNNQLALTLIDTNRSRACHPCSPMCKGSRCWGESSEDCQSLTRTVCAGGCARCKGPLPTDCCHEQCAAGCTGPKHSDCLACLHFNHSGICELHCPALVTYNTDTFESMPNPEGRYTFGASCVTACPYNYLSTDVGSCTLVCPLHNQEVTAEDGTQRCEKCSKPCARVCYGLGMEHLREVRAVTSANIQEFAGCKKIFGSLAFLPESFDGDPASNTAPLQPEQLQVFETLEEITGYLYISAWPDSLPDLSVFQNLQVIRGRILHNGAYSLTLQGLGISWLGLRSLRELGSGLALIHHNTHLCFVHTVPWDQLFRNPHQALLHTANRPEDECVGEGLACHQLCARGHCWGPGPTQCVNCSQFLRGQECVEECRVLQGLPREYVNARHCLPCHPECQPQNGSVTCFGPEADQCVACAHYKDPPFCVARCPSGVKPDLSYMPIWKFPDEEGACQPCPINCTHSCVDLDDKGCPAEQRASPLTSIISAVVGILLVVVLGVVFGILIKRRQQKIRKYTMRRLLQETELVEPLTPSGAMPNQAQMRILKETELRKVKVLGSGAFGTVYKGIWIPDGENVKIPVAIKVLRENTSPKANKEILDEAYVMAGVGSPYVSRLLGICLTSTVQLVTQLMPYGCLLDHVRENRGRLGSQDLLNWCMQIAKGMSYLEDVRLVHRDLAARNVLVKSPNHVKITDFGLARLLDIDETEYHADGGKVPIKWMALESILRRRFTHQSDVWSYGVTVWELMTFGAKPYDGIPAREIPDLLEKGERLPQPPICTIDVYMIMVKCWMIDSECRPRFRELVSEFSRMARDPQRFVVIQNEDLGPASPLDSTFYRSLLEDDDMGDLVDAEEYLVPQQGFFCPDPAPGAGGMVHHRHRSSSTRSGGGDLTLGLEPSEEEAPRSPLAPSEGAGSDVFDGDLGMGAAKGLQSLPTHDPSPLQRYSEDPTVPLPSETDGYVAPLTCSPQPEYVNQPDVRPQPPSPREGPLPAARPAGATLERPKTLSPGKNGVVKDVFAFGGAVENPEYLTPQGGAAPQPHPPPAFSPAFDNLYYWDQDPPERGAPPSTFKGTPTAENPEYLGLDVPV

IC50 [1]	IC50 [2]	Structure (SMILES)
0.0144 µM	5.26 µM	Cc1cc(Nc2ncnc3cc4c(nc23)N2CCN(C(=O)/C=C/[C@H]3CCCN3C)C(CO4)C2)ccc1Oc1ccn2ncnc2c1 (stereo in doubt) [Compound 27, (E)-1-((10S)-4-((4-([1,2,4]triazolo[1,5-a]pyridin-7-yloxy)-3-methylphenyl)amino)-7,8,10,11-tetrahydro-9H-6,10-methanopyrimido[4′,5′:5,6]pyrido[3,2-b][1,4,7]oxadiazonin-9-yl)-3-((R)-1-methylpyrrolidin-2-yl)prop-2-en-1-one]
0.0108 µM	8.77 µM	Cc1cc(Nc2ncnc3cc4c(nc23)N2CCN(C(=O)/C=C/[C@@H]3CCCN3C)C(CO4)C2)ccc1Oc1ccn2ncnc2c1 (stereo in doubt) [Compound 28, (E)-1-((10S)-4-((4-([1,2,4]triazolo[1,5-a]pyridin-7-yloxy)-3-methylphenyl)amino)-7,8,10,11-tetrahydro-9H-6,10-methanopyrimido[4′,5′:5,6]pyrido[3,2-b][1,4,7]oxadiazonin-9-yl)-3-((S)-1-methylpyrrolidin-2-yl)prop-2-en-1-one]
0.0168 µM	> 10 µM	Cc1cc(Nc2ncnc3cc4c(nc23)N2CCN(C(=O)/C=C/[C@@H](C)N(C)C)C(CO4)C2)ccc1Oc1ccn2ncnc2c1 (stereo in doubt) [Compound 29, (4R,E)-1-((10S)-4-((4-([1,2,4]triazolo[1,5-a]pyridin-7-yloxy)-3-methylphenyl)amino)-7,8,10,11-tetrahydro-9H-6,10-methanopyrimido[4′,5′:5,6]pyrido[3,2-b][1,4,7]oxadiazonin-9-yl)-4-(dimethylamino)pent-2-en-1-one]
0.0185 µM	> 10 µM	CN(C)C/C=C/C(=O)N1CCN2CC1COc1cc3ncnc(Nc4ccc(Oc5ccn6ncnc6c5)cc4)c3nc12 (stereo in doubt) [Compound 31, (E)-1-((10S)-4-((4-([1,2,4]triazolo[1,5-a]pyridin-7-yloxy)phenyl)amino)-7,8,10,11-tetrahydro-9H-6,10-methanopyrimido[4′,5′:5,6]pyrido[3,2-b][1,4,7]oxadiazonin-9-yl)-4-(dimethylamino)but-2-en-1-one]
0.00841 µM	0.92 µM	CN(C)C/C=C/C(=O)N1CCN2CC1COc1cc3ncnc(Nc4ccc(Oc5ccn6ncnc6c5)c(Cl)c4)c3nc12 (stereo in doubt) [Compound 32, (E)-1-((10S)-4-((4-([1,2,4]triazolo[1,5-a]pyridin-7-yloxy)-3-chlorophenyl)amino)-7,8,10,11-tetrahydro-9H-6,10-methanopyrimido[4′,5′:5,6]pyrido[3,2-b][1,4,7]oxadiazonin-9-yl)-4-(dimethylamino)but-2-en-1-one]
0.0177 µM	0.465 µM	Cc1cc(Nc2ncnc3cc4c(nc23)N2CCN(C(=O)/C=C/CN(C)C)C(CO4)C2)ccc1Oc1ccn2ccnc2c1 (stereo in doubt) [Compound 34, (E)-4-(dimethylamino)-1-((10S)-4-((4-(imidazo[1,2-a]pyridin-7-yloxy)-3-methylphenyl)amino)-7,8,10,11-tetrahydro-9H-6,10-methanopyrimido[4′,5′:5,6]pyrido[3,2-b][1,4,7]oxadiazonin-9-yl)but-2-en-1-one]
0.00548 µM	0.309 µM	Cc1c(Oc2ccn3ncnc3c2)ccc(Nc2ncnc3cc4c(nc23)N2CCN(C(=O)/C=C/CN(C)C)C(CO4)C2)c1F (stereo in doubt) [Compound 35, (E)-1-((10S)-4-((4-([1,2,4]triazolo[1,5-a]pyridin-7-yloxy)-2-fluoro-3-methylphenyl)amino)-7,8,10,11-tetrahydro-9H-6,10-methanopyrimido[4′,5′:5,6]pyrido[3,2-b][1,4,7]oxadiazonin-9-yl)-4-(dimethylamino)but-2-en-1-one]
0.00892 µM	6.17 µM	CN(C)C/C=C/C(=O)N1CCN2CC1COc1cc3ncnc(Nc4ccc(Oc5ccn6ncnc6c5)c(F)c4)c3nc12 (stereo in doubt) [Compound 39, (E)-1-((10S)-4-((4-([1,2,4]triazolo[1,5-a]pyridin-7-yloxy)-3-fluorophenyl)amino)-7,8,10,11-tetrahydro-9H-6,10-methanopyrimido[4′,5′:5,6]pyrido[3,2-b][1,4,7]oxadiazonin-9-yl)-4-(dimethylamino)but-2-en-1-one]
0.0185 µM	> 10 µM	Cc1cc(Nc2ncnc3cc4c(c(F)c23)N2CCN(C(=O)/C=C/CN(C)C)C(CO4)C2)ccc1Oc1ccn2ncnc2c1 (stereo in doubt) [Compound 40, (E)-1-((10S)-4-((4-([1,2,4]triazolo[1,5-a]pyridin-7-yloxy)-3-methylphenyl)amino)-5-fluoro-7,8,10,11-tetrahydro-9H-6,10-methano[1,4,7]oxadiazonino[3,2-g]quinazolin-9-yl)-4-(dimethylamino)but-2-en-1-one]
0.0245 µM	7.3 µM	Cc1cc(Nc2ncnc3cc4c(nc23)N2CCN(C(=O)/C=C/[C@H]3CCCN3C)C(CO4)C2)c(F)cc1Oc1ccn2ncnc2c1 (stereo in doubt) [Compound 41, (E)-1-((10S)-4-((4-([1,2,4]triazolo[1,5-a]pyridin-7-yloxy)-2-fluoro-5-methylphenyl)amino)-7,8,10,11-tetrahydro-9H-6,10-methanopyrimido[4′,5′:5,6]pyrido[3,2-b][1,4,7]oxadiazonin-9-yl)-3-((R)-1-methylpyrrolidin-2-yl)prop-2-en-1-one]
0.0108 µM	1.94 µM	CN(C)C/C=C/C(=O)N1CCN2CC1COc1cc3ncnc(Nc4ccc(Oc5ccn6ncnc6c5)cc4F)c3nc12 (stereo in doubt) [Compound 42, (E)-1-((10S)-4-((4-([1,2,4]triazolo[1,5-a]pyridin-7-yloxy)-2-fluorophenyl)amino)-7,8,10,11-tetrahydro-9H-6,10-methanopyrimido[4′,5′:5,6]pyrido[3,2-b][1,4,7]oxadiazonin-9-yl)-4-(dimethylamino)but-2-en-1-one]
0.00869 µM	1.4 µM	CN(C)C/C=C/C(=O)N1CCN2CC1COc1cc3ncnc(Nc4cc(Cl)c(Oc5ccn6ncnc6c5)cc4F)c3nc12 (stereo in doubt) [Compound 43, (E)-1-((10S)-4-((4-([1,2,4]triazolo[1,5-a]pyridin-7-yloxy)-5-chloro-2-fluorophenyl)amino)-7,8,10,11-tetrahydro-9H-6,10-methanopyrimido[4′,5′:5,6]pyrido[3,2-b][1,4,7]oxadiazonin-9-yl)-4-(dimethylamino)but-2-en-1-one]
0.036 µM	0.337 µM	Cc1cc(Nc2ncnc3cc4c(nc23)N2CCN(C(=O)/C=C/CN(C)C)C(CO4)C2)c(F)cc1Oc1cncc(F)c1 (stereo in doubt) [Compound 44, (E)-4-(dimethylamino)-1-((10S)-4-((2-fluoro-4-((5-fluoropyridin-3-yl)oxy)-5-methylphenyl)amino)-7,8,10,11-tetrahydro-9H-6,10-methanopyrimido[4′,5′:5,6]pyrido[3,2-b][1,4,7]oxadiazonin-9-yl)but-2-en-1-one]
0.0273 µM	> 10 µM	Cc1cc(Nc2ncnc3cc4c(nc23)N2CCN(C(=O)/C=C/C3CN(C)C3)C(CO4)C2)ccc1Oc1ccn2ncnc2c1 (stereo in doubt) [Compound 45, (E)-1-((10S)-4-((4-([1,2,4]triazolo[1,5-a]pyridin-7-yloxy)-3-methylphenyl)amino)-7,8,10,11-tetrahydro-9H-6,10-methanopyrimido[4′,5′:5,6]pyrido[3,2-b][1,4,7]oxadiazonin-9-yl)-3-(1-methylazetidin-3-yl)prop-2-en-1-one]

From patent publication US20230382923A1, “FUSED TETRACYCLIC QUINAZOLINE DERIVATIVES AS INHIBITORS OF ERBB2” (EnLiven Therapeutics, Inc., priority 2021, published 2023)
